Experimental data from patent US20250340574A1, “MODULATORS OF CYSTIC FIBROSIS TRANSMEMBRANE CONDUCTANCE REGULATOR” (Vertex Pharmaceuticals Incorporated, priority 2022, published 2025).

target: T1, CFTR (F508del/MF-HBE cells) (Homo sapiens, UniProt P13569, DEL508-508); assay: Ussing chamber assay of CFTR-mediated short-circuit currents, Assay D (single concentration of 1 μM); assay type: cell-based; details: with 44 nM potentiator and 18 μM Tezacaftor, 18-24 hours, 20% human serum
T1 construct: human bronchial epithelial (HBE) cells derived from CF subjects heterozygous for F508del and a minimal function CFTR mutation (F508del/MF-HBE); endogenous in cells; host or cells: Primary human bronchial epithelial cells from CF subjects (F508del/MF genotype), differentiated at an air-liquid interface
T1 sequence (P13569 with tags, fused parts or gaps DEL508-508): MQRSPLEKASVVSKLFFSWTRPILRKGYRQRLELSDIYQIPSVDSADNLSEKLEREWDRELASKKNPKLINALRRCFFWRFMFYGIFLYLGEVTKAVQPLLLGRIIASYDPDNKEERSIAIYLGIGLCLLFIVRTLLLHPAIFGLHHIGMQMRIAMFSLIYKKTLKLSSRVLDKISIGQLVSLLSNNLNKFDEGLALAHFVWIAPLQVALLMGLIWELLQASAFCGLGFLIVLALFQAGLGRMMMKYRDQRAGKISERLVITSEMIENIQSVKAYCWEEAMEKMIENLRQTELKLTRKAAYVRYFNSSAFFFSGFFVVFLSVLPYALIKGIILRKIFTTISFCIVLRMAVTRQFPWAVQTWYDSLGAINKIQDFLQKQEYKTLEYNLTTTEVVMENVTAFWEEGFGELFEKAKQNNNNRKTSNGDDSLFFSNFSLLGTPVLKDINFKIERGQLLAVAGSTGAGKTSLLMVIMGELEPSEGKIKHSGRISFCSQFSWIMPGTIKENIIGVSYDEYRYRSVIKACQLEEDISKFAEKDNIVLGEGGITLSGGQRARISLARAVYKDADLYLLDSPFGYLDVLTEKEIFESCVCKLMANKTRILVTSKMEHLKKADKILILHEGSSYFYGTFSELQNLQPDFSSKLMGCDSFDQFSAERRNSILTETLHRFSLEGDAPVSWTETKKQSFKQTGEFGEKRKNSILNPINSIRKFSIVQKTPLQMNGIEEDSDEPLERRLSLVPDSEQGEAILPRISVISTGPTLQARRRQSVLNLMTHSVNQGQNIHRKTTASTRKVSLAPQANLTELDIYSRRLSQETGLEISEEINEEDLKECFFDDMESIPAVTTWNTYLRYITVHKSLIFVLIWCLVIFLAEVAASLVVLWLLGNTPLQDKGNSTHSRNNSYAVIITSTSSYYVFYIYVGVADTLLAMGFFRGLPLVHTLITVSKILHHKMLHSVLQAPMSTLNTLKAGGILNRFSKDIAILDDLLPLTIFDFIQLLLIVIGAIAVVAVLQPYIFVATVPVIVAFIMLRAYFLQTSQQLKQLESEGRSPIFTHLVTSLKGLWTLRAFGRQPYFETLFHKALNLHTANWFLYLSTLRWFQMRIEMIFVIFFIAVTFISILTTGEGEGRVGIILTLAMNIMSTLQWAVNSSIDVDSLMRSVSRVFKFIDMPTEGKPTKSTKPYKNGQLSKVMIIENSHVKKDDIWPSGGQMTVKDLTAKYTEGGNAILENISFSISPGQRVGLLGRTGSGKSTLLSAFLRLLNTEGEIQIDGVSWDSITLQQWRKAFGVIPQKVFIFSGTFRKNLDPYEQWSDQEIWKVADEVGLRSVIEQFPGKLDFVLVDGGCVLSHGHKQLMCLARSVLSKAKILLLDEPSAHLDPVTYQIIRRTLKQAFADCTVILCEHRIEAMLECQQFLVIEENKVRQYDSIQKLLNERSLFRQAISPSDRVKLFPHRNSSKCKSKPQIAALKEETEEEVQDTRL
How it was run: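 F508del/MF-HBE cells were preincubated 18–24 h at 37 °C in 20% human serum with corrector plus 18 μM tezacaftor and either 33 nM (concentration series) or 44 nM (1 μM single point) of the aminotrifluoromethyl triazatricyclic potentiator. Ussing chamber, Vhold=0 mV, 37 °C; forskolin 20 μM stimulation, CFTR ISC taken as inhibitor-cocktail-sensitive current.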

| SMILES | D activity at 1 μM (%) |
| --- | --- |
| Cc1cccc(C)c1-c1cc2nc(n1)NS(=O)(=O)c1cccc(c1)C(=O)N(Cc1nc3c(cc1F)nc(C(C)C)n3C)[C@H](COC(C)C)CO2 [Compound I-68] | +++ (+++ is >60%) |
| Cc1cccc(C)c1-c1cc2nc(n1)NS(=O)(=O)c1cccc(c1)C(=O)N(Cc1cnc3oc(C(C)C)cc3n1)[C@H](C[C@@H]1CCCCO1)CO2 [Compound I-8] | +++ (+++ is >60%) |
| Cc1cccc(C)c1-c1cc2nc(n1)NS(=O)(=O)c1cccc(c1)C(=O)N(Cc1cnc3cc(C(C)C)n(C)c3n1)[C@H](C[C@@H]1CCCCO1)CO2 [Compound I-15, (11R)-6-(2,6-dimethylphenyl)-12-[(6-isopropyl-5-methyl-pyrrolo[2,3-b]pyrazin-3-yl)methyl]-2,2-dioxo-11-[[(2S)-tetrahydropyran-2-yl]methyl]-9-oxa-2λ^6-thia-3,5,12,19-tetrazatricyclo[12.3.1.14,8]nonadeca-1(18),4(19),5,7,14,16-hexaen-13-one] | +++ (+++ is >60%) |
| Cc1cccc(CC2CCCCC2)c1-c1nc2nc(c1C)OC[C@@H](CC(C)(C)C)N(Cc1cnc3oc(C4CC4)cc3n1)C(=O)c1cccc(c1)S(=O)(=O)N2 [Compound I-224] | +++ (+++ is >60%) |
| Cc1cccc(C)c1-c1cc2nc(n1)NS(=O)(=O)c1cccc(c1)C(=O)N(Cc1nc3cc(C(C)(C)C)oc3cc1F)[C@H](COC(C)C)CO2 [Compound I-242] | +++ (+++ is >60%) |
| Cc1cccc(C)c1-c1cc2nc(n1)NS(=O)(=O)c1cccc(c1)C(=O)N(Cc1cnc3cn(C(C)C)nc3n1)[C@H](COC(C)C)CO2 [Compound I-132] | +++ (+++ is >60%) |
| Cc1cccc(C)c1-c1cc2nc(n1)NS(=O)(=O)c1cccc(c1)C(=O)N(Cc1cnc3cn(C(C)C)nc3n1)[C@@H](CCC1(C)CC1)CO2 [Compound I-129] | +++ (+++ is >60%) |
| Cc1cccc(C)c1-c1cc2nc(n1)NS(=O)(=O)c1cccc(c1)C(=O)N(Cc1cnc3oc(C(C)C)c(C(F)(F)F)c3n1)[C@H](CC13CC(C1)C3)CO2 [Compound I-114] | +++ (+++ is >60%) |
| Cc1cccc(C)c1-c1cc2nc(n1)NS(=O)(=O)c1cccc(c1)C(=O)N(Cc1cnc3oc(C(C)C)cc3n1)[C@H](CC(C)(C)C(F)(F)F)CO2 [Compound I-60] | +++ (+++ is >60%) |
| Cc1cccc(C)c1-c1cc2nc(n1)NS(=O)(=O)c1cccc(c1)C(=O)N(Cc1cnc3cc(C(C)C)n(C)c3n1)[C@H](CC1(F)CCC1)CO2 [Compound I-125] | +++ (+++ is >60%) |
| Cc1cccc(C)c1-c1cc2nc(n1)NS(=O)(=O)c1cccc(c1)C(=O)N(Cc1cnc3oc(C(C)(C)C)cc3n1)[C@H](CC1CC1)CO2 [Compound I-219] | +++ (+++ is >60%) |
| Cc1cccc(C)c1-c1cc2nc(n1)NS(=O)(=O)c1cccc(c1)C(=O)N(Cc1cnc3c(n1)CN(C(C)C)C3=O)[C@@H](CCC1(C)CC1)CO2 (stereo in doubt) [III-19] | +++ (+++ is >60%) |
| Cc1cccc(C)c1-c1cc2nc(n1)NS(=O)(=O)c1cccc(c1)C(=O)N(Cc1cnc3oc(C(C)C)cc3n1)C(CC(C)(C)C1CC1)CO2 (stereo not drawn) [Compound I-105] | +++ (+++ is >60%) |
| Cc1cccc(C)c1-c1cc2nc(n1)NS(=O)(=O)c1cccc(c1)C(=O)N(Cc1cnc3oc(C(C)C)cc3n1)[C@H](CC(C)C)CCO2 [Compound I-5] | +++ (+++ is >60%) |
| Cc1cccc(C)c1-c1cc2nc(n1)NS(=O)(=O)c1cccc(c1)C(=O)N(Cc1cnc3nc(C(C)C)n(C)c3n1)[C@H](CC(C)(C)C)CO2 [Compound I-73] | +++ (+++ is >60%) |
| Cc1cccc(C)c1-c1cc2nc(n1)NS(=O)(=O)c1cccc(c1)C(=O)N(Cc1cnc3cc(C(C)C)n(CCO)c3n1)[C@H](CC(C)(C)C)CO2 [Compound I-160, (11R)-6-(2,6-Dimethylphenyl)-11-(2,2-dimethylpropyl)-12-[[5-(2-hydroxyethyl)-6-isopropyl-pyrrolo[2,3-b]pyrazin-3-yl]methyl]-2,2-dioxo-9-oxa-2λ^6-thia-3,5,12,19-tetrazatricyclo[12.3.1.14,8]nonadeca-1(18),4(19),5,7,14,16-hexaen-13-one] | +++ (+++ is >60%) |
| Cc1cccc(C)c1-c1cc2nc(n1)NS(=O)(=O)c1cccc(c1)C(=O)N(Cc1cnc3c(n1)C(=O)N(C(C)C)[C@@H]3C)[C@H](CC(C)(C)C)CO2 (stereo in doubt) [III-23] | +++ (+++ is >60%) |
| Cc1cccc(C)c1-c1cc2nc(n1)NS(=O)(=O)c1cccc(c1)C(=O)N(Cc1cnc3oc(C4(C)CC4)cc3n1)[C@H](COC(C)C)CO2 [Compound I-186] | +++ (+++ is >60%) |
| Cc1cccc(C)c1-c1cc2nc(n1)NS(=O)(=O)c1cccc(c1)C(=O)N(Cc1nc3cc(C(C)C)oc3nc1C(F)(F)F)[C@H](CC1(C)CC1)CO2 [Compound I-142] | +++ (+++ is >60%) |
| CCC(C)(C)C[C@H]1COc2cc(-c3c(C)cccc3C)nc(n2)NS(=O)(=O)c2cccc(c2)C(=O)N1Cc1cnc2oc(C(C)C)cc2n1 (stereo in doubt) [Compound I-39] | ++ (++ is 30-60%) |
| Cc1cccc(C)c1-c1cc2nc(n1)NS(=O)(=O)c1cccc(c1)C(=O)N(Cc1cnc3c(n1)C(=O)N(C(C)C)C3)[C@@H](CCC1(C)CC1)CO2 (stereo in doubt) [III-22] | +++ (+++ is >60%) |
| Cc1cccc(C)c1-c1cc2nc(n1)NS(=O)(=O)c1cccc(c1)C(=O)N(Cc1cnc3oc(C(C)C)c(C)c3n1)[C@H](COC1CCCC1)CO2 [Compound I-119] | +++ (+++ is >60%) |
| Cc1cccc(C)c1-c1cc2nc(n1)NS(=O)(=O)c1cccc(c1)C(=O)N(Cc1cnc3oc(C(C)C)c(C)c3n1)[C@H](CC(C)(C)F)CO2 [Compound I-48] | +++ (+++ is >60%) |
| Cc1cccc(C)c1-c1cc2nc(n1)NS(=O)(=O)c1cccc(c1)C(=O)N(Cc1cnc3cc(C(C)C)n(C)c3n1)[C@H](CC1CCOCC1)CO2 [Compound I-29] | ++ (++ is 30-60%) |
| Cc1cccc(C)c1-c1nc2nc(c1C)OC[C@@H](CC1(C)CC1)N(Cc1cnc3cc(C4(C)CC4)n(C)c3n1)C(=O)c1cccc(c1)S(=O)(=O)N2 [Compound I-230] | +++ (+++ is >60%) |
| Cc1cccc(C)c1-c1nc2nc(c1C)OC[C@@H](CC(C)(C)C)N(Cc1cnc3cc(C4(C)CC4)n(C)c3n1)C(=O)c1cccc(c1)S(=O)(=O)N2 [Compound I-229] | +++ (+++ is >60%) |
| Cc1cccc(C(C)C)c1-c1nc2nc(c1C)OC[C@@H](CC(C)(C)C)N(Cc1cnc3cc(C(C)C)n(C)c3n1)C(=O)c1cccc(c1)S(=O)(=O)N2 (atropisomer, axis not shown) [Compound I-180] | +++ (+++ is >60%) |
| Cc1cccc(C)c1-c1cc2nc(n1)NS(=O)(=O)c1cccc(c1)C(=O)N(Cc1cnc3cc(C(C)C)n(C)c3n1)[C@H](Cc1ccccc1)CO2 [Compound I-190] | +++ (+++ is >60%) |

same assay, conditions: with 44 nM potentiator and 18 μM Tezacaftor, 20% human serum

| SMILES | D act. at 1 μM (%) |
| --- | --- |
| COCc1cc2nc(CN3C(=O)c4cccc(c4)S(=O)(=O)Nc4nc(cc(-c5c(C)cccc5C)n4)OC[C@H]3CC3(C)CC3)cnc2o1 [IV-16, (11R)-6-(2,6-dimethylphenyl)-12-[[6-(methoxymethyl)furo[2,3-b]pyrazin-2-yl]methyl]-11-[(1-methylcyclopropyl)methyl]-2,2-dioxo-9-oxa-2λ^6-thia-3,5,12,19-tetrazatricyclo[12.3.1.14,8]nonadeca-1(18),4(19),5,7,14,16-hexaen-13-one] | +++ (+++ is >60%) |
| Cc1cccc(C)c1-c1cc2nc(n1)NS(=O)(=O)c1cccc(c1)C(=O)N(Cc1ncc3cc(C4CC4)n(C)c3n1)[C@H](COC(C)C)CO2 [IV-29] | +++ (+++ is >60%) |
| CC(C)=Cc1cc2nc(CN3C(=O)c4cccc(c4)S(=O)(=O)Nc4nc(cc(-c5c(C)cccc5C)n4)OC[C@H]3CC3(C)CC3)cnc2o1 [IV-17, (11R)-6-(2,6-dimethylphenyl)-11-[(1-methylcyclopropyl)methyl]-12-[[6-(2-methylprop-1-enyl)furo[2,3-b]pyrazin-2-yl]methyl]-2,2-dioxo-9-oxa-2λ^6-thia-3,5,12,19-tetrazatricyclo[12.3.1.14,8]nonadeca-1(18),4(19),5,7,14,16-hexaen-13-one] | +++ (+++ is >60%) |
| Cc1cccc(C)c1-c1cc2nc(n1)NS(=O)(=O)c1cccc(c1)C(=O)N(Cc1cnc3oc(C(C)(C)C)cc3n1)[C@H](CC(C)C)CO2 [IV-6] | +++ (+++ is >60%) |
| Cc1cccc(C)c1-c1cc2nc(n1)NS(=O)(=O)c1cccc(c1)C(=O)N(Cc1cnc3cc(C4(C)CC4)n(C)c3n1)[C@@H](C(C1CCC1)C1CCC1)CO2 (single isomer, unassigned) [IV-21, 11-[di(cyclobutyl)methyl]-6-(2,6-dimethylphenyl)-12-[[5-methyl-6-(1-methylcyclopropyl)pyrrolo[2,3-b]pyrazin-3-yl]methyl]-2,2-dioxo-9-oxa-2λ^6-thia-3,5,12,19-tetrazatricyclo[12.3.1.14,8]nonadeca-1(18),4(19),5,7,14,16-hexaen-13-one] | ++ (++ is 30-60%) |
